According to patent publication US20050019314A1, “Method and compositions for treating respiratory pathologies” (priority 2001, published 2005):
Marks after values point to notes of the source that are not given here.

Tests used:
Type in all cases: in vivo, rat
male Wistar rats [1] = experiment: Immune cell accumulation in bronchoalveolar lavage fluid induced by intratracheal instillation of taurocholate (ML-7)
Procedure: For this experiment, three groups of 8 male Wistar rats (250-300 g) were given either ML-7 by the IP route at a dose of 1 mg/kg/12 h for 36 hours, or the vehicle alone. […] At time t=2 h after the intratracheal instillation, animals were anesthetized for bronchoalveolar lavage, then sacrificed.

male Wistar rats [2] = experiment: Pulmonary paracellular permeability to 125I-labelled human serum albumin after intratracheal Pseudomonas aeruginosa LPS
Procedure: For this experiment, three groups of 6 male Wistar rats (200-225 g) were pretreated either with ML-7 by the IP route (3 mg/kg then 1 mg/kg 3 times a day for 48 h) or the vehicle (ethanol 10%). One hour after the next-to-last administration of ML-7, under urethane anesthesia ([…] IP), a slow intratracheal infusion of 150 μl of an iso-osmolar solution (5% bovine albumin+PBS) containing the tracer and containing (2 groups) or not containing (control group) LPS (1 μg/rat) was given.

male Wistar rats [3] = experiment: Immune cell accumulation in bronchoalveolar lavage fluid induced by intratracheal infusion of Pseudomonas aeruginosa LPS
Procedure: For this experiment, three groups of 7 male Wistar rats (200-225 g) were used. Animals were pretreated with either ML-7 by the IP route (3 mg/kg then 1 mg/kg, 3 times a day for 48 h) or with the vehicle (ethanol 10%). One hour after the next-to-last ML-7 administration, under urethane anesthesia ([…]), a slow intratracheal infusion of 150 μl of an iso-osmolar solution (5% bovine albumin+PBS) containing (2 groups) or not containing (control group) LPS (1 μg/rat) was given. Four hours after the intratracheal infusion, bronchoalveolar lavage was performed.

male Wistar rats [4] = experiment: Immune cell accumulation in bronchoalveolar lavage fluid induced by intratracheal infusion of taurocholate (PD-98059)
Procedure: For this experiment, three groups of 8 male Wistar rats (250-300 g) were given either PD-98059 by the IP route (1 mg/kg/12 h, 36 h) or the vehicle alone (DMSO).

male Wistar rats [5] = experiment: Immune cell accumulation in bronchoalveolar lavage fluid induced by intranasal instillation of SLIGRL in rats
Procedure: At time t=10 days, the four groups of animals were given a slow intranasal instillation of 200 μl of physiologic serum containing (groups 2 and 4) or not containing (groups 1 and 3) 0.2 mg of SLIGRL.
At time t=3 h after intranasal instillation, animals were anesthetized for bronchoalveolar lavage, then sacrificed.

[6] = ML-7 1 mg/kg/12 h, 36 h IP + taurocholate intratracheal, BAL 2 h, mean ± SD
[7] = ML-7 (3 mg/kg then 1 mg/kg 3 times a day for 48 h IP) + LPS, BAL 4 h, mean ± SEM
[8] = PD-98059 1 mg/kg/12 h, 36 h IP + taurocholate, BAL 2 h, mean ± SEM
[9] = Taurine 10% in drinking water 10 days + 0.9% NaCl IN, BAL 3 h
[10] = Taurine 10% in drinking water 10 days + PAR 2 (SLIGRL) IN, BAL 3 h
[11] = PAR 2 (SLIGRL) 0.2 mg/kg IN alone, no taurine, BAL 3 h after instillation

Which results are given for `O=S(=O)(c1cccc2c(I)cccc12)N1CCCNCC1` [ML-7, 1-(5-iodonaphtalène-1-sulfonyl)-1H-hexahydro-1,4-diazepine]?
Leucocytes in BAL (male Wistar rats [1]; [6]): 4160 ± 573; Lymphocytes in BAL (male Wistar rats [1]; [6]): 101 ± 44; Macrophages in BAL (male Wistar rats [1]; [6]): 3585 ± 398; Neutrophils in BAL (male Wistar rats [1]; [6]): 473 ± 216; intra-alveolar accumulation of immune cells (in words) (male Wistar rats [1]; ML-7 IP + intratracheal taurocholate): significantly reduces; effect on vascular endothelial cells (endothelium permeability, tone, pulmonary circulating hemodynamics) (male Wistar rats [2]; ML-7 IP + LPS, concluded from unchanged plasma radioactivity): does not present effect; LPS-induced increase in pulmonary permeability (male Wistar rats [2]; ML-7 pretreatment IP (3 mg/kg then 1 mg/kg 3 times a day for 48 h) + LPS): inhibited; Leucocytes in BAL (male Wistar rats [3]; [7]): 17243 ± 2956 cells/mm^3 BAL; Lymphocytes in BAL (male Wistar rats [3]; [7]): 902 ± 375 cells/mm^3 BAL; Macrophages in BAL (male Wistar rats [3]; [7]): 10708 ± 1713 cells/mm^3 BAL; Neutrophils in BAL (male Wistar rats [3]; [7]): 6587 ± 1749 cells/mm^3 BAL; LPS-induced increase in the number of neutrophils in BAL (in words) (male Wistar rats [3]; ML-7 pretreatment IP + LPS): reduced

Which “Eosinophils in BAL” value (male Wistar rats [4]; [8]) does the source give for `COc1cccc(-c2cc(=O)c3ccccc3o2)c1N` [PD-98059, 2-(amino-3-methoxyphenyl)-4H-1-benzopyran-4-one] here?
Its value is 27 ± 27 cells/mm^3 BAL.

What about the “Leucocytes in BAL” value (male Wistar rats [4]; [8]) of the same compound?
The value was 21424 ± 3164 cells/mm^3 BAL.

What about the “Lymphocytes in BAL” value (male Wistar rats [4]; [8]) of the same compound?
The value was 774 ± 183 cells/mm^3 BAL.

What about the “Macrophages in BAL” value (male Wistar rats [4]; [8]) of the same compound?
Its value is 17956 ± 2465 cells/mm^3 BAL.

What about the “Neutrophils in BAL” value (male Wistar rats [4]; [8]) of the same compound?
The value was 2652 ± 600 cells/mm^3 BAL.

And the “intra-alveolar accumulation of immune cells (in words)” value (male Wistar rats [4]; PD-98059 IP + intratracheal taurocholate)?
Its value is “reduces”.

What does the source list for `NCCS(=O)(=O)O` [Taurine, taurine]?
Eosinophils in BAL (male Wistar rats [5]; [9]): 17 ± 1 mm^3; Lymphocytes in BAL (male Wistar rats [5]; [9]): 22 ± 8 mm^3; Macrophages in BAL (male Wistar rats [5]; [9]): 1651 ± 72 mm^3; Neutrophils in BAL (male Wistar rats [5]; [9]): 34 ± 3 mm^3; Tot. Leucocytes in BAL (male Wistar rats [5]; [9]): 1728 ± 111 mm^3; Eosinophils in BAL (male Wistar rats [5]; [10]): 17 ± 1* mm^3; Lymphocytes in BAL (male Wistar rats [5]; [10]): 22 ± 8* mm^3; Macrophages in BAL (male Wistar rats [5]; [10]): 1967 ± 103* mm^3; Neutrophils in BAL (male Wistar rats [5]; [10]): 34 ± 3* mm^3; Tot. Leucocytes in BAL (male Wistar rats [5]; [10]): 2086 ± 134* mm^3; SLIGRL-induced accumulation of eosinophils and neutrophils in BAL (in words) (male Wistar rats [5]; animals treated with taurine, t = 3 h): not in animals treated with taurine

SLIGRL [PAR 2] was tested. Which “Eosinophils in BAL” value (male Wistar rats [5]; [11]) did it give?
Its value is 32 ± 2^+ mm^3.

What about the “Lymphocytes in BAL” value (male Wistar rats [5]; [11]) of the same compound?
Its value is 297 ± 28 mm^3.

And the “Macrophages in BAL” value (male Wistar rats [5]; [11])?
Its value is 5559 ± 63^+ mm^3.

What about the “Neutrophils in BAL” value (male Wistar rats [5]; [11]) of the same compound?
Its value is 656 ± 41^+ mm^3.

And the “Tot. Leucocytes in BAL” value (male Wistar rats [5]; [11])?
The value was 6464 ± 99^+ mm^3.

And the “eosinophils and neutrophils in bronchoalveolar lavage fluid (in words)” value (male Wistar rats [5]; intranasal SLIGRL, control animals (no taurine), t = 3 h)?
The value was “results in accumulation”.
